A word on the IC50: it is the concentration at which inhibition is half-maximal. Read a high IC50 as lower potency.

SMILES strings stand for the structures.

For the test, the target named is T1, Human full-length diacylglycerol:acylCoA acyltransferase 1 (DGAT-1) (Homo sapiens, UniProt O75907).
T1 construct: Human full-length diacylglycerol:acylCoA acyltransferase 1 (DGAT-1) was expressed in Sf9 insect cells; made in house; host or cells: Sf9 insect cells (baculovirus); crude membrane/microsome fraction
T1 sequence (O75907 1-488): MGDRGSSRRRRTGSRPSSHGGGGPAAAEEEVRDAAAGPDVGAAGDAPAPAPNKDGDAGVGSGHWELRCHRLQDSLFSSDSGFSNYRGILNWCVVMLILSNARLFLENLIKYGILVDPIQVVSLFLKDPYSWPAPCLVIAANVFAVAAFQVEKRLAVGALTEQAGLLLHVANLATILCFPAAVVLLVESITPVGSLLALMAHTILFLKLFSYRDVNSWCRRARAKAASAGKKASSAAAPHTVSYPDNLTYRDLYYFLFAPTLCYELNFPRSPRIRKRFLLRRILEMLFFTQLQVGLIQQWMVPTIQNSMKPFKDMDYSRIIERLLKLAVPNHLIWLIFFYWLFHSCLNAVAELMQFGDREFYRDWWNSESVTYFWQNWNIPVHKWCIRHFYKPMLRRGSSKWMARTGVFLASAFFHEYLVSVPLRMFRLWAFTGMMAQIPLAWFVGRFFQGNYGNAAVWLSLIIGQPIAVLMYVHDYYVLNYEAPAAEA
Kind of test: DGAT-1 Reduced Microsome Multidose Assay, G7829E Human IC50. The format is biochemical. The conditions noted are these: crude membrane fraction of Sf9 cells expressing human DGAT-1; [14C]decanoylCoA; terminated with 5 μl of 1.4% phosphoric acid instead of HCl; average where tested more than once. Here is the method: Human full-length diacylglycerol:acylCoA acyltransferase 1 (DGAT-1) was expressed in Sf9 insect cells which are then lysed and a crude membrane fraction (105,000×g pellet) was prepared. The DGAT-1 gene is a human DGAT-1 gene described in J Biol Chem 273:26765 (1998) and U.S. Pat. No. 6,100,077.
In vitro inhibition of DGAT-1 was measured using a modification, further described below, of the assay methodology described in U.S. Pat. No. 6,994,956 B2.
The cells were cultured as follows. Sf9 cells (20 L) were infected with 4 mL of DGAT-1 Baculovirus Infected Insect Cells (BIIC) for 72 hours in a Wave Bioreactor System 20/50P (Wave Biotec/GE Healthcare).
Crude DGAT-1 microsomes were prepared as follows. Cell pellets were washed once with ice-cold Dulbecco's phosphate-buffered saline. Cells were collected in tabletop centrifuge (Beckman GS-6KR), 15 minutes, 2000×g, 4° C. Twenty (20) mL of ice-cold Microsome Buffer (MB) was added per 5 g of cell pellet. The suspension was passed through a microfluidizer 3 times (18K psi). The lysate was transferred to centrifuge tubes and centrifuged for 20 minutes at 5000×g (Beckman-Coulter, Inc. Allegra® 64R High-Speed Refrigerated Benchtop Centrifuge, F0650 rotor) at 4° C. The supernatant was transferred to ultracentrifuge tubes and centrifuged at 125,000×g for 1 hour in a Beckman Ti-45 rotor, 4° C. The supernatant fluid was discarded. The pellet was resuspended in 70 mL of MB by sonication. The microsome concentration was determined using Bio-Rad Protein DC Protein Assay. The microsomes were filter sterilized with a 0.22 μm filter. The samples were portioned, flash frozen and stored at −80° C.
The Microsome Buffer, used for microsome preparation, was prepared by conventional means and contained 125 mM sucrose, 3 mM imidazole, 0.2 μg/mL aprotinin, 0.2 μg/mL leupeptin and 5 mM dithiothreitol (Cleland's reagent), DGAT-1 activity was measured in 384-well format in a total assay volume of 25 μl that contained, Hepes buffer (50 mM, pH 7.5), MgCl2 (10 mM), bovine serum albumin (0.6 mg/ml), [^14C]decanoylCoA (20 μM, 58 Ci/mol) and membranes (25 μg/ml) into which 1,2 dioleoyl-sn-glycerol (75 μM) in acetone has already been incorporated. Inhibitors in DMSO were pre-incubated with membranes before initiating the DGAT-1 reaction by the addition of decanoylCoA. […] The DMSO concentration was 2.5%. The inhibitors were present at a range of eight concentrations to generate an apparent IC50 for each compound. The eight inhibitor concentration employed ranged from 10 μM to 3 nM (from high to low concentration). Specifically, the eight concentrations used were 10 μM, 3 μM, 1 μM, 300 nM, 100 nM, 30 nM, 10 nM and 3 nM.
Reaction mixtures were neutralized by the addition of 15 μl of tris(hydroxy-methyl)aminomethane (1M, pH 8.0) and then mixed by trituration with 37.5 μl of Microscint™-E (Perkin Elmer). Plates contents were allowed to partition for 15 to 30 min before ^14C was measured in a scintillation spectrometer (Wallac Microbeta Trilux 1450-030 liquid scintillation counter 12 detector in the top-count DPM mode). Percent inhibition of test compounds was computed as […].
Four separate assays were performed using 4 different methods of analysis. The method of analysis of Assay 1 was the same as Assay 4 (described above) except microsomes were utilized at 25 μg/mL instead of 5 μg/mL. The method of analysis of Assay 2 was the same as Assay 4 (described above) except eleven (11) concentrations of inhibitor were employed instead of eight (8). The method of analysis of Assay 3 was the same as Assay 2 except the compounds were serially diluted in a different laboratory.
Where this DGAT-1 inhibition assay was performed on a compound more than once, an average is provided for that compound.
`COc1nc(N)c2c(n1)CCN(c1cccc(C(C)(C)CO)c1)C2=O` [Example 1K, 4-amino-6-[3-(2-hydroxy-1,1-dimethylethyl)phenyl]-2-methoxy-7,8-dihydropyrido[4,3-d]pyrimidin-5(6H)-one] displayed a half-inhibitory concentration (IC50) of 831 nM.

In turn, `COc1nc(N)c2c(n1)CCN(c1ccc(C(C)(C)c3ncco3)cc1)C2=O` [Example 1L, 4-amino-2-methoxy-6-{4-[1-methyl-1-(1,3-oxazol-2-yl)ethyl]phenyl}-7,8-dihydropyrido[4,3-d]pyrimidin-5(6H)-one] yielded an IC50 of 34.8 nM.

Molecule `COc1nc(N)c2c(n1)CCN(c1ccc(C(C)(C)c3cnco3)cc1)C2=O` [Example 1M, 4-amino-2-methoxy-6-{4-[1-methyl-1-(1,3-oxazol-5-yl)ethyl]phenyl}-7,8-dihydropyrido[4,3-d]pyrimidin-5(6H)-one] displayed an IC50 of 11.3 nM.

In turn, `COc1nc(N)c2c(n1)CCN(c1ccc(C(C)(C)c3cc[nH]n3)cc1)C2=O` [Example 1N, 4-amino-2-methoxy-6-{4-[1-methyl-1-(1H-pyrazol-3-yl)ethyl]phenyl}-7,8-dihydropyrido[4,3-d]pyrimidin-5(6H)-one] returned an IC50 of 31.9 nM.

In turn, `COc1nc(N)c2c(n1)CCN(c1ccc(CC(C)(C)O)cc1)C2=O` [Example 1S, 4-amino-6-[4-(2-hydroxy-2-methylpropyl)phenyl]-2-methoxy-7,8-dihydropyrido[4,3-d]pyrimidin-5(6H)-one] displayed an IC50 of 44.3 nM.

With `COc1nc(N)c2c(n1)CCN(c1ccc3c(c1)COC3(C)C)C2=O` [Example 1U, 4-amino-6-(1,1-dimethyl-1,3-dihydro-2-benzofuran-5-yl)-2-methoxy-7,8-dihydropyrido[4,3-d]pyrimidin-5(6H)-one], the IC50 came to 229 nM.

For `COc1nc(N)c2c(n1)CCN(c1ccc(C3(O)CCCCC3)cc1)C2=O` [Example 1V, 4-amino-6-[4-(1-hydroxycyclohexyl)phenyl]-2-methoxy-7,8-dihydropyrido[4,3-d]pyrimidin-5(6H)-one], the half-inhibitory concentration (IC50) worked out at 113 nM.

Consider `CCC(O)(CC)c1ccc(N2CCc3nc(OC)nc(N)c3C2=O)cc1` [Example 1W, 4-amino-6-[4-(1-ethyl-1-hydroxypropyl)phenyl]-2-methoxy-7,8-dihydropyrido[4,3-d]pyrimidin-5(6H)-one], for which the IC50 was determined as 34 nM.

For `COc1nc(N)c2c(n1)CCN(c1ccc(C(C)(C)c3ccon3)cc1)C2=O` [Example 3B, 4-amino-6-[4-(1-isoxazol-3-yl-1-methylethyl)phenyl]-2-methoxy-7,8-dihydropyrido[4,3-d]pyrimidin-5(6H)-one], 55 nM corresponded to half-maximal inhibition (IC50).

In the case of `COc1nc(N)c2c(n1)CCN(c1ccc(C(C)(C)c3ccno3)cc1)C2=O` [Example 3C, 4-amino-6-[4-(1-isoxazol-5-yl-1-methylethyl)phenyl]-2-methoxy-7,8-dihydropyrido[4,3-d]pyrimidin-5(6H)-one], the IC50 amounted to 4.5 nM.

Take `COc1nc(N)c2c(n1)CCN(c1ccc(C(C)(C)c3nnnn3C)cc1)C2=O` [Example 3Q, 4-amino-2-methoxy-6-{4-[1-methyl-1-(1-methyl-1H-tetrazol-5-yl)ethyl]phenyl}-7,8-dihydropyrido[4,3-d]pyrimidin-5(6H)-one]: it took 95.3 nM to reach half-maximal inhibition (IC50).

Regarding `COc1nc(N)c2c(n1)CCN(c1ccc(C(C)(C)c3nnn(C)n3)cc1)C2=O` [Example 3R, 4-amino-2-methoxy-6-{4-[1-methyl-1-(2-methyl-2H-tetrazol-5-yl)ethyl]phenyl}-7,8-dihydropyrido[4,3-d]pyrimidin-5(6H)-one], the IC50 came out at 21.1 nM.

`COc1nc(N)c2c(n1)CCN(c1ccc(C(C)(C)CNC(=O)OC(C)(C)C)cc1)C2=O` [Example 3T, tert-butyl {2-[4-(4-amino-2-methoxy-5-oxo-7,8-dihydropyrido[4,3-d]pyrimidin-6(5H)-yl)phenyl]-2-methylpropyl}carbamate] returned an IC50 of 19.6 nM.

On to `COc1nc(N)c2c(n1)CCN(c1ccc(C3(C#N)CCC3)cc1)C2=O` [Example 4A, 1-[4-(4-amino-2-methoxy-5-oxo-7,8-dihydropyrido[4,3-d]pyrimidin-6(5H)-yl)phenyl]cyclobutanecarbonitrile], for which the IC50 stood at 20.7 nM.

These data come from patent US20100197591A1, “4-AMINO-7,8-DIHYDROPYRIDO[4,3-d]PYRIMIDIN-5(6H)-ONE DERIVATIVES” (pfizer Inc, priority 2009, published 2010).
